According to PubChem BioAssay (NCI):
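Five concentrations, 48 hours, 96-well plates. TGI is the concentration that stops growth completely.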

Legend:
Assay in all cases: NCI tumour cell line growth inhibition, 48 h
A498 renal = tested on: A498 renal
ACHN renal = tested on: ACHN renal
CAKI-1 renal = tested on: CAKI-1 renal
CCRF-CEM leukemia = tested on: CCRF-CEM leukemia
COLO 205 colon = tested on: COLO 205 colon
DLD-1 colon = tested on: DLD-1 colon
DMS 114 small cell lung = tested on: DMS 114 small cell lung
EKVX NSCLC = tested on: EKVX NSCLC
HCT-15 colon = tested on: HCT-15 colon
HL-60(TB) leukemia = tested on: HL-60(TB) leukemia
HOP-18 NSCLC = tested on: HOP-18 NSCLC
HOP-92 NSCLC = tested on: HOP-92 NSCLC
HT29 colon = tested on: HT29 colon
IGROV1 ovarian = tested on: IGROV1 ovarian
K-562 leukemia = tested on: K-562 leukemia
KM20L2 colon = tested on: KM20L2 colon
LOX IMVI melanoma = tested on: LOX IMVI melanoma
LXFL 529 NSCLC = tested on: LXFL 529 NSCLC
M14 melanoma = tested on: M14 melanoma
M19-MEL melanoma = tested on: M19-MEL melanoma
MALME-3M melanoma = tested on: MALME-3M melanoma
MOLT-4 leukemia = tested on: MOLT-4 leukemia
NCI-H226 lung = tested on: NCI-H226 lung
NCI-H23 lung = tested on: NCI-H23 lung
NCI-H460 lung = tested on: NCI-H460 lung
NCI-H522 lung = tested on: NCI-H522 lung
OVCAR-3 ovarian = tested on: OVCAR-3 ovarian
OVCAR-8 ovarian = tested on: OVCAR-8 ovarian
RPMI-8226 leukemia = tested on: RPMI-8226 leukemia
RXF-631 renal = tested on: RXF-631 renal
SF-268 CNS = tested on: SF-268 CNS
SF-295 CNS = tested on: SF-295 CNS
SF-539 CNS = tested on: SF-539 CNS
SK-MEL-2 melanoma = tested on: SK-MEL-2 melanoma
SK-MEL-28 melanoma = tested on: SK-MEL-28 melanoma
SK-MEL-5 melanoma = tested on: SK-MEL-5 melanoma
SK-OV-3 ovarian = tested on: SK-OV-3 ovarian
SN12C renal = tested on: SN12C renal
SNB-19 CNS = tested on: SNB-19 CNS
SNB-75 CNS = tested on: SNB-75 CNS
SNB-78 CNS = tested on: SNB-78 CNS
SW-620 colon = tested on: SW-620 colon
TK-10 renal = tested on: TK-10 renal
U251 CNS = tested on: U251 CNS
UACC-62 melanoma = tested on: UACC-62 melanoma
UO-31 renal = tested on: UO-31 renal
786-0 renal = tested on: 786-0 renal
A549 NSCLC = tested on: A549 NSCLC
DMS 273 small cell lung = tested on: DMS 273 small cell lung
HCC-2998 colon = tested on: HCC-2998 colon
HCT-116 colon = tested on: HCT-116 colon
HOP-62 NSCLC = tested on: HOP-62 NSCLC
KM12 colon = tested on: KM12 colon
OVCAR-5 ovarian = tested on: OVCAR-5 ovarian
RXF 393 renal = tested on: RXF 393 renal
SR leukemia = tested on: SR leukemia
UACC-257 melanoma = tested on: UACC-257 melanoma
XF 498 CNS = tested on: XF 498 CNS

Q: What does the source list for `C=C(C)C1Cc2c(c3ccccc3n(C)c2=O)O1` (configuration not stated)?
A: TGI (A498 renal): > 100 µM; TGI (ACHN renal): > 100 µM; TGI (CAKI-1 renal): > 100 µM; TGI (CCRF-CEM leukemia): > 100 µM; TGI (COLO 205 colon): > 100 µM; TGI (DLD-1 colon): > 100 µM; TGI (DMS 114 small cell lung): > 100 µM; TGI (EKVX NSCLC): > 100 µM; TGI (HCT-15 colon): > 100 µM; TGI (HL-60(TB) leukemia): > 100 µM; TGI (HOP-18 NSCLC): > 100 µM; TGI (HOP-92 NSCLC): > 100 µM; TGI (HT29 colon): > 100 µM; TGI (IGROV1 ovarian): > 100 µM; TGI (K-562 leukemia): > 100 µM; TGI (KM20L2 colon): > 100 µM; TGI (LOX IMVI melanoma): > 100 µM; TGI (LXFL 529 NSCLC): > 100 µM; TGI (M14 melanoma): > 100 µM; TGI (M19-MEL melanoma): > 100 µM; TGI (MALME-3M melanoma): > 100 µM; TGI (MOLT-4 leukemia): > 100 µM; TGI (NCI-H226 lung): > 100 µM; TGI (NCI-H23 lung): > 100 µM; TGI (NCI-H460 lung): > 100 µM; TGI (NCI-H522 lung): > 100 µM; TGI (OVCAR-3 ovarian): > 100 µM; TGI (OVCAR-8 ovarian): > 100 µM; TGI (RPMI-8226 leukemia): > 100 µM; TGI (RXF-631 renal): > 100 µM; TGI (SF-268 CNS): > 100 µM; TGI (SF-295 CNS): > 100 µM; TGI (SF-539 CNS): > 100 µM; TGI (SK-MEL-2 melanoma): > 100 µM; TGI (SK-MEL-28 melanoma): > 100 µM; TGI (SK-MEL-5 melanoma): > 100 µM; TGI (SK-OV-3 ovarian): > 100 µM; TGI (SN12C renal): > 100 µM; TGI (SNB-19 CNS): > 100 µM; TGI (SNB-75 CNS): > 100 µM; TGI (SNB-78 CNS): > 100 µM; TGI (SW-620 colon): > 100 µM; TGI (TK-10 renal): > 100 µM; TGI (U251 CNS): > 100 µM; TGI (UACC-62 melanoma): > 100 µM; TGI (UO-31 renal): > 100 µM

Q: Which TGI (786-0 renal) does the source give for `Cc1ccccc1NC(=O)C(=O)C(C#N)c1ccccc1C` (configuration not stated) here?
A: The TGI was greater than 100 µM.

Q: What about the TGI (A498 renal) of the same compound?
A: Its TGI is greater than 100 µM.

Q: What about the TGI (A549 NSCLC) of the same compound?
A: Its TGI is greater than 100 µM.

Q: And the TGI (ACHN renal)?
A: Its TGI is greater than 100 µM.

Q: What about the TGI (CAKI-1 renal) of the same compound?
A: Its TGI is greater than 100 µM.

Q: And the TGI (CCRF-CEM leukemia)?
A: Its TGI is 89.8 µM.

Q: And the TGI (COLO 205 colon)?
A: Its TGI is greater than 100 µM.

Q: And the TGI (DLD-1 colon)?
A: The TGI was greater than 100 µM.

Q: And the TGI (DMS 114 small cell lung)?
A: The TGI was greater than 100 µM.

Q: What about the TGI (DMS 273 small cell lung) of the same compound?
A: Its TGI is greater than 100 µM.

Q: And the TGI (EKVX NSCLC)?
A: Its TGI is greater than 100 µM.

Q: And the TGI (HCC-2998 colon)?
A: The TGI was greater than 100 µM.

Q: What about the TGI (HCT-116 colon) of the same compound?
A: The TGI was greater than 100 µM.

Q: And the TGI (HCT-15 colon)?
A: Its TGI is greater than 100 µM.

Q: What about the TGI (HL-60(TB) leukemia) of the same compound?
A: Its TGI is greater than 100 µM.

Q: And the TGI (HOP-18 NSCLC)?
A: The TGI was greater than 100 µM.

Q: And the TGI (HOP-62 NSCLC)?
A: Its TGI is greater than 100 µM.

Q: What about the TGI (HOP-92 NSCLC) of the same compound?
A: Its TGI is greater than 100 µM.

Q: And the TGI (HT29 colon)?
A: The TGI was greater than 100 µM.

Q: What about the TGI (IGROV1 ovarian) of the same compound?
A: The TGI was greater than 100 µM.

Q: What about the TGI (K-562 leukemia) of the same compound?
A: The TGI was 61.5 µM.

Q: And the TGI (KM12 colon)?
A: The TGI was greater than 100 µM.

Q: And the TGI (KM20L2 colon)?
A: Its TGI is greater than 100 µM.

Q: What about the TGI (LOX IMVI melanoma) of the same compound?
A: Its TGI is 39.4 µM.

Q: What about the TGI (LXFL 529 NSCLC) of the same compound?
A: The TGI was greater than 100 µM.

Q: And the TGI (M14 melanoma)?
A: The TGI was greater than 100 µM.

Q: What about the TGI (MALME-3M melanoma) of the same compound?
A: The TGI was greater than 100 µM.

Q: What about the TGI (MOLT-4 leukemia) of the same compound?
A: Its TGI is greater than 100 µM.

Q: And the TGI (NCI-H226 lung)?
A: Its TGI is greater than 100 µM.

Q: What about the TGI (NCI-H23 lung) of the same compound?
A: Its TGI is greater than 100 µM.

Q: What about the TGI (NCI-H460 lung) of the same compound?
A: The TGI was greater than 100 µM.

Q: What about the TGI (NCI-H522 lung) of the same compound?
A: The TGI was greater than 100 µM.

Q: What about the TGI (OVCAR-3 ovarian) of the same compound?
A: Its TGI is greater than 100 µM.

Q: And the TGI (OVCAR-5 ovarian)?
A: Its TGI is greater than 100 µM.

Q: What about the TGI (OVCAR-8 ovarian) of the same compound?
A: Its TGI is greater than 100 µM.

Q: And the TGI (RPMI-8226 leukemia)?
A: Its TGI is greater than 100 µM.

Q: What about the TGI (RXF 393 renal) of the same compound?
A: Its TGI is greater than 100 µM.

Q: And the TGI (SF-268 CNS)?
A: The TGI was greater than 100 µM.

Q: And the TGI (SF-295 CNS)?
A: The TGI was greater than 100 µM.

Q: And the TGI (SF-539 CNS)?
A: The TGI was greater than 100 µM.

Q: What about the TGI (SK-MEL-2 melanoma) of the same compound?
A: Its TGI is greater than 100 µM.

Q: What about the TGI (SK-MEL-28 melanoma) of the same compound?
A: The TGI was greater than 100 µM.

Q: And the TGI (SK-MEL-5 melanoma)?
A: The TGI was greater than 100 µM.

Q: And the TGI (SK-OV-3 ovarian)?
A: Its TGI is greater than 100 µM.

Q: And the TGI (SN12C renal)?
A: The TGI was greater than 100 µM.

Q: What about the TGI (SNB-19 CNS) of the same compound?
A: The TGI was greater than 100 µM.

Q: What about the TGI (SNB-75 CNS) of the same compound?
A: Its TGI is greater than 100 µM.

Q: And the TGI (SNB-78 CNS)?
A: Its TGI is greater than 100 µM.

Q: And the TGI (SR leukemia)?
A: Its TGI is greater than 100 µM.

Q: What about the TGI (SW-620 colon) of the same compound?
A: The TGI was 36.5 µM.

Q: What about the TGI (TK-10 renal) of the same compound?
A: Its TGI is greater than 100 µM.

Q: What about the TGI (U251 CNS) of the same compound?
A: Its TGI is greater than 100 µM.

Q: What about the TGI (UACC-257 melanoma) of the same compound?
A: The TGI was greater than 100 µM.

Q: And the TGI (UACC-62 melanoma)?
A: The TGI was greater than 100 µM.

Q: And the TGI (UO-31 renal)?
A: Its TGI is greater than 100 µM.

Q: And the TGI (XF 498 CNS)?
A: Its TGI is greater than 100 µM.
